Measured values published in article PMC10263210, “Design, Synthesis and Biological Evaluation of Novel MDH Inhibitors Targeting Tumor Microenvironment” (Pharmaceuticals, 2023).

Tests used:
human recombinant MDH1 = biological target: T1, human recombinant MDH1 (Homo sapiens, UniProt P40925); assay: MDH1 enzyme activity assay (oxaloacetate-dependent NADH oxidation); format: biochemical; details: means of three experiments
T1 construct: purchased BioVision
T1 sequence (P40925 1-334): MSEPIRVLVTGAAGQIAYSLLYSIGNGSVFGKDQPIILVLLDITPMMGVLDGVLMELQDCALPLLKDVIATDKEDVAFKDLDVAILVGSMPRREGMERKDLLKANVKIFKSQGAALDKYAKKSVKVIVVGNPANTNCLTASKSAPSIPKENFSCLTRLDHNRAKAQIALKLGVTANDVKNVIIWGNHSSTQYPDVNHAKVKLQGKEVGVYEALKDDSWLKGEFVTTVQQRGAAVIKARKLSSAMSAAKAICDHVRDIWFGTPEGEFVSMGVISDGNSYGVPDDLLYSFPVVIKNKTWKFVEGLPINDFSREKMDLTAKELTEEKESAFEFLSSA
Text: To develop the dual inhibitors of MDH1 and MDH2, we screened the newly synthesized LW1497 derivatives using MDH and MDH2 enzyme assays. LW1497 was used as the positive control for the MDH1/2 dual inhibitor. We evaluated the ability of the synthesized compounds to inhibit human recombinant MDH1 and MDH2 enzymatic activity using an oxaloacetate-dependent NADH oxidation assay (Table 1, Table 2, Table 3, Table 4, Table 5 and Table 6). Our SAR optimization strategy focused on four different parts of LW1497: (A) the introduction of various groups at different positions on the amide phenyl ring; (B) the replacement of the 3-(4-(2,4,4-trimethylpentan-2-yl) alkyl chain; (C) the alteration of the amide portion; and (D) the modification of the oxypropanamide linker portion (Figure 1).
The activities of MDH1 and MDH2 were confirmed using an oxaloacetate-dependent NADH oxidation assay. Experiments were conducted using 100 mM of potassium phosphate buffer (pH 7.4) and human recombinant MDH1 (BioVision) and MDH2 (BioVision), and the results were obtained by measuring the absorbance at 340 nm. Enzyme activity was measured using a plate reader at a wavelength of 340 nm.

A549 cells = assay: Real-time ATP production rate (XF analyzer); format: cell-based, human
Text: We then examined whether the ATP production pattern was altered by drug treatment using an XF analyzer for real-time metabolic analysis (Figure 5).

[1] = Lactate consumption in treated cells; format: cell-based; details: cells treated with compound
Text: In contrast, high aerobic glycolysis distinguishes cancer cells from normal cells and has been exploited to detect tumors in vivo. […] Cancer cells consume the secreted lactate to produce ATP through the TCA cycle and oxidative phosphorylation processes. Some cancer cells use lactate as a substrate for TCA intermediates via monocarboxylate transporters (MCT1/4) as well as for ATP production. Lactate can be converted to pyruvate using lactate dehydrogenase (LDH) and can be further converted to acetyl-CoA by […] for fatty acid synthesis.

IC50 (human recombinant MDH1): 3.33 ± 0.18 µM
SMILES: CC(C)(C)CC(C)(C)c1ccc(N2CCC(C(=O)Nc3cccc(OC(F)(F)F)c3)CC2)cc1 [Compound 50, N-(3-(Trifluoromethoxy)phenyl)-1-(4-(2,4,4-trimethylpentan-2-yl)phenyl)piperidine-4-carboxamide]
total ATP decrease (A549 cells; 5 µM): 14.6%
total ATP decrease (A549 cells; 10 µM): 28.6%
Lactate consumption [1]: did not change significantly
